Reference: patent US11440923B2, “Substituted macrocyclic indole derivatives” (Bayer Aktiengesellschaft, priority 2017, dated 2022)
Counter-ions that a name gives are not always drawn. Like-named read-outs stand apart in the source and are kept apart here.

What was measured:
AMO-1 cells = assay: Antiproliferation assay AMO-1 (Assay 7); format: cell-based
Method in brief: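 IC50 values reflect growth relative to a day 0 baseline (CI) and DMSO vehicle (C0). Viable cells were quantified by CellTiter-Glo luminescence after 72 h treatment at 37 °C.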

SUDHL5 cells [1] = assay: Induction of caspase-3/7 activity in SUDHL5 cells (Assay 4); format: cell-based
Method in brief: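 Read-out: Caspase-Glo 3/7 luminescence (1 h, 37 °C) after cells, plated overnight, were treated with compounds for 3 h at 37 °C. Signal corrected for cell-free medium background and expressed relative to DMSO control mean.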

BCL-2 = BCL-2 (Homo sapiens (Human), UniProt P10415); assay: Protein-protein interaction assay BCL-2/Bad BH3 peptide (BCL-2 assay, TR-FRET); format: binding; settings: read-out: BCL-2 Assay IC50 (median)
Protocol: Assay 3 Protein-Protein Interaction Assay: BCL-2/Bad BH3 Peptide (BCL-2 Assay)
The dose-dependent inhibition by the compounds described in this invention of the interaction between BCL-2 and the BH3 domain of Bad (both human) was determined using a steady state binding competition assay with time-resolved fluorescence energy transfer (TR-FRET) readout. For that purpose BCL-2 (amino acids 1-211, C-terminal fused to a hexahistidine (6×His) tag (SEQ ID 5) and a synthetic Bad BH3-derived peptide of sequence Biotin-PEG2-PEG2-[…]-Nle-[…]-amide (SEQ ID 4) served as protein receptor and tracer ligand respectively. The recombinant BCL-2 protein (expressed in E. coli) was purchased from BPS Bioscience (San Diego, Calif., USA). The Bad BH3-derived peptide can be obtained from e.g. Biosyntan (Berlin, Germany).
In the assay 11 different concentrations of each compound (0.1 nM, 0.33 nM, 1.1 nM, 3.8 nM, 13 nM, 44 nM, 0.15 μM, 0.51 μM, 1.7 μM, 5.9 μM and 20 μM) were typically measured as duplicates in the same microtiter plate. For that, 100-fold concentrated DMSO solutions were prepared by serial dilutions (1:3.4) of a 2 mM stock solution in a clear, 384-well microtiter plate (Greiner Bio-One, Frickenhausen, Germany). From there, 50 nl were transferred in a dark test plate (Greiner Bio-One, Frickenhausen, Germany). The assay was initiated by addition of 2 μL of a 2,5-fold concentrated His-BCL-2 solution (usually for a 1 nM end concentration in 5 μL reaction volume) in aqueous assay buffer [50 mM Tris/HCl pH 7, 100 mM sodium chloride (NaCl), 50 mM potassium fluoride (KF), 0.005% Tween-20, 2 mM DTT, 0.1% bovine gamma globulin (BGG)] to the compounds in the assay plate. This was followed by a 10-minute incubation step at 22° C. for pre-equilibration of the putative complex between His-BCL-2 and the compounds. After that, 3 μL of a 1.67-fold concentrated solution (in assay buffer) consisting of Bad BH3-derived peptide (1 nM end concentration) and TR-FRET detection reagents [1.67 nM anti-His-Eu cryptate and 1.67 nM streptavidin-XL665 (both from Cisbio Bioassays, Codolet, France)], were added.
The mixture was incubated in the dark for one hour at 22° C. and then overnight at 4° C. The formation of BCL-2/Bad complexes was determined by measuring the resonance energy transfer of the anti-His-Eu-cryptate antibody to the streptavidin-XL665 present in the reaction. For that purpose, the fluorescence emission at 620 nm and 665 nm after excitation at 330-350 nm was measured in a TR-FRET measuring instrument, for instance a Rubystar or a Pherastar (both from BMG Lab Technologies, Offenburg, Germany) or a Viewlux (Perkin-Elmer). The ratio of the emission at 665 nm and at 622 nm was used as indicator of the amount of BCL-2/Bad complexes present.
The resulting data (ratio) were normalized, taking 0% inhibition as the mean value of control measurements (usually 32 data points) where all reagents were included. In this case 50 nl DMSO were used instead of compounds. […] IC50 values were determined by regression analysis based on a 4 parameter equation (minimum, maximum, IC50, Hill; Y=Max+(Min−Max)/(1+(X/IC50)^Hill) using the Screener Software (Genedata).

SUDHL5 cells [2] = assay: Induction of cytotoxicity in SUDHL5 cells (Assay 6); format: cell-based; settings: 5 h, CellTiter-Glo, read-out: Cytotox SUDHL5 IC50 (median)
Method in brief: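 SUDHL5 and SUDHL10 cells plated and held overnight at 37° C, then incubated 5 h at 37° C with compound. Viability measured by CellTiter-Glo luminescence after 15 min shaking at room temperature. Cell-free medium wells served as control.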

[3] = 72 h, CellTiter-Glo, read-out: Antiproli AMO-1 IC50 median
[4] = caspase-3/7 induction, 3 h, read-out: Caspase SUDHL5 EC50 (median)
[5] = Homo sapiens, AMO1, 72 h, 72 h, CellTiter-Glo, read-out: Antiproli AMO-1 IC50 median
[6] = Homo sapiens, SU-DHL-5, 3 h, caspase-3/7 induction, 3 h, read-out: Caspase SUDHL5 EC50 (median)

Sequence of BCL-2 (P10415 1-211): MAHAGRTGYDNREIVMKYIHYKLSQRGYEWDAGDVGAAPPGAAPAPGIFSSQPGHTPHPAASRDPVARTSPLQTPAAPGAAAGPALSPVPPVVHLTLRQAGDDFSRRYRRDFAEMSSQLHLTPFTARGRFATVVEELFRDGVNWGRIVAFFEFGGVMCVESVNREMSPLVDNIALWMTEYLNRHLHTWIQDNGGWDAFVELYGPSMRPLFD

SMILES | IC50 (AMO-1 cells; Homo sapiens, AMO1, 72 h, read-out: Antiproli AMO-1 IC50 median, 72 h, CellTiter-Glo) [nM] | EC50 (SUDHL5 cells [1]; Homo sapiens, SU-DHL-5, 3 h, read-out: Caspase SUDHL5 EC50 (median), caspase-3/7 induction, 3 h) [nM] | IC50 (BCL-2) [nM] | IC50 (SUDHL5 cells [2]; Homo sapiens, SU-DHL-5, 5 h) [nM] | IC50 (AMO-1 cells; [3]) [nM] | EC50 (SUDHL5 cells [1]; [4]) [nM] | IC50 (SUDHL5 cells [2]) [nM] | IC50 (AMO-1 cells; [5]) [nM] | EC50 (SUDHL5 cells [1]; [6]) [nM] | IC50 (AMO-1 cells; read-out: Antiproli AMO-1 IC50 median, 72 h, CellTiter-Glo) [nM] | EC50 (SUDHL5 cells [1]; read-out: Caspase SUDHL5 EC50 (median), caspase-3/7 induction, 3 h) [nM]
Cc1c2c(nn1C)C(CCN1CCOCC1)OCCCCn1c(C(=O)O)c(CCCOc3cccc4cc(F)ccc34)c3ccc(F)c-2c31 (single isomer, unassigned; enantiomer 1) [Example 20, 4-fluoro-7-{3-[(6-fluoronaphthalen-1-yl)oxy]propyl}-2,3-dimethyl-15-[2-(morpholin-4-yl)ethyl]-2,10,11,12,13,15-hexahydropyrazolo[4′,3′:9,10][1,6]oxazacycloundecino[8,7,6-hi]indole-8-carboxylic Acid—N-ethylethanamine (Enantiomer 1)] | 94.5 | 29 | > 20000 | 33 |  |  |  |  |  |  | 
CCc1c2c(nn1C)C(CCC1CCOCC1)OCCCCn1c(C(=O)O)c(CCCOc3cccc4cc(F)ccc34)c3ccc(Cl)c-2c31 (single isomer, unassigned; enantiomer 2) [Example 62, (−)-4-chloro-3-ethyl-7-{3-[(6-fluoronaphthalen-1-yl)oxy]propyl}-2-methyl-15-[2-(oxan-4-yl)ethyl]-2,10,11,12,13,15-hexahydropyrazolo[4′,3′:9,10][1,6]oxazacycloundecino[8,7,6-hi]indole-8-carboxylic Acid (Enantiomer 2)] |  |  | > 20000 |  | 1920 | 4200 | 6300 |  |  |  | 
CCc1c2c(nn1C)C(CCC(C)(C)O)OCCCCn1c(C(=O)O)c(CCCOc3cccc4cc(F)ccc34)c3ccc(Cl)c-2c31 (racemic) [Example 74, (rac)-4-chloro-3-ethyl-7-{3-[(6-fluoronaphthalen-1-yl)oxy]propyl}-(15-rac)-(3-hydroxy-3-methylbutyl)-2-methyl-2,10,11,12,13,15-hexahydropyrazolo[4′,3′:9,10][1,6]oxazacycloundecino[8,7,6-hi]indole-8-carboxylic Acid] |  |  | 19600 | 51 |  |  |  | 35.8 | 45 |  | 
CCc1c2c(nn1C)C(CCOC)OCCCCn1c(C(=O)O)c(CCCOc3cccc4cc(F)ccc34)c3ccc(Cl)c-2c31 (racemic) [Example 41, (rac)-4-chloro-3-ethyl-7-{3-[(6-fluoronaphthalen-1-yl)oxy]propyl}-(15-rac)-(2-methoxyethyl)-2-methyl-2,10,11,12,13,15-hexahydropyrazolo[4′,3′:9,10][1,6]oxazacycloundecino[8,7,6-hi]indole-8-carboxylic Acid] |  |  | 18100 | 170 |  |  |  | 135 | 97 |  | 
CCc1c2c(nn1C)C(CCN1CCC(F)(F)C1)OCCCCn1c(C(=O)O)c(CCCOc3cccc4cc(F)ccc34)c3ccc(Cl)c-2c31 (single isomer, unassigned; enantiomer 1) [Example 56, 4-chloro-15-[2-(3,3-difluoropyrrolidin-1-yl)ethyl]-3-ethyl-7-{3-[(6-fluoronaphthalen-1-yl)oxy]propyl}-2-methyl-2,10,11,12,13,15-hexahydropyrazolo[4′,3′:9,10][1,6]oxazacycloundecino[8,7,6-hi]indole-8-carboxylic Acid—N-ethylethanamine Salt (Enantiomer 1)] |  |  | > 20000 |  |  |  | 21 |  |  | 22.6 | 18
Cc1c2c(nn1C)C(CCO)OCCCCn1c(C(=O)O)c(CCCOc3cccc4ccccc34)c3ccc(Cl)c-2c31 (single isomer, unassigned; enantiomer 2) [Example 32, (−)-4-chloro-15-(2-hydroxyethyl)-2,3-dimethyl-7-{3-[(naphthalen-1-yl)oxy]propyl}-2,10,11,12,13,15-hexahydropyrazolo[4′,3′:9,10][1,6]oxazacycloundecino[8,7,6-hi]indole-8-carboxylic Acid (Enantiomer 2)] |  |  | > 20000 |  | 25600 | > 33000 | > 33000 |  |  |  | 
